Laboratory results: patent EP2364976B1, “S1P receptor modulating compounds and use thereof” (EPIX Pharmaceuticals, Inc., priority 2007, dated 2007)
“And” between values parts separate entries of the source, which are not always exact repeats. Equal values may be shown once.

Biological target: T1, hS1P1 (Homo sapiens, UniProt P21453)
T1 construct: expressed in transfected cells
Experiment: hS1P1 EC50 (S1P receptor Ca2+ flux protocol, FLIPR, CHO K1 Gqi5 cells)
Type: cell-based
Settings: several values per compound = repeat determinations as printed
Description: S1P receptor activity may also be measured by an SIP receptor (e.g., hS1P1, hS1P3, rS1P1, rS1P3 and parental cell) Ca^2+ Flux protocol as described below: • 1. Material • a. FLIPR buffer: 1x HBSS; 10mM HEPES • b. Cell growth media: • i. human and rat S1P1 and S1P3: F12-Ham's media; 10% FBS (qualified); 1x Pen/Strep/Glu; 300ug/mL Hygromycin; 400ug/mL Geneticin ii. Parental cell: human and rat S1P and S1P3: F12-Ham's media; 10% FBS (qualified); 1x Pen/Strep/Glu; 300ug/mL Hygromycin; • c. Cell seeding media; F12-Ham's media; 10% FBS (Charcoal/dextran stripped); 1x Pen/Strep/Glu; • d. Cell dissociation buffer: Versene from Invitrogen • e. Agonist (SIP) dissolving buffer: 0.4% (w/v) fatty-acid free BSA (Sigma # A8806) in FLIPR buffer • f. FLIPR dye: BD PBX Calcium assay kit; Cat#641077 is composed of Calcium indicator (Cat#850000) and 100x PBX signal enhancer (cat#850001). The 100x PBX signal enhancer is diluted into FLIPR buffer 1:100 and the calcium indicator is then added at 1:1000 ratio. • g. Cell plates (96-well): Greiner Cat#655090 • h. Compound plates (96-well): Costar #3365 • i. S1P stock solution preparation: S1P is purchased from CalBioChem (Catalog # 970471; 1mg vial; custom prep using methanol, & nitrogen gas drying inside glass vial; Storage @ -20°C). Dissolve 1 vial of SIP into 26.4ml of agonist dissolving buffer in a 50ml centrifuge tube; Remove label from bottle of SIP, open and drop entire bottle into tube. Sonicate at 37° for ½ hour. Clear solution of 100µM will result. This stock solution is aliquoted and stored at -80C • 2. Cell line maintenance • a. V5 tags were added at the N-terminus of hS1P1, hS1P3, rS1P1 and rS1P3. All four genes were transfected into CHO K1 cells which stably express Gqi5. • b. hS1P1 and hS1P3 were established as stable clones and rS1P1 and rS1P3 were sorted by anti V5 tag and established as stable pools after sorting. • c. Parental cell line CHO/K1 Gqi5 is used as the control. • d. All the cells are maintained in cell growth media and splitted twice a week using Versene. • e. All the cell lines are used under passage 30. • 3. Assay protocol • a. Cell seeding: Cells are lifted from the flask by Versene and seeded in cell plates at 50K/well in cell seeding media. Cells are grown overnight at 37 degree. • b. Cell loading: Cell seeding media is discarded. Cells are loaded with 50ul of FLIPR dye at RT for 90 min. Signal is stable for up to 5 h after dye loading. • c. Agonist (S1P) preparation: Frozen stock of S1P is thawed out and sonicated at 37c for 30 minutes every time before use. The stock is then diluted into FLIPR buffer at proper concentration. • d. Compound preparation: Compounds are dissolved in DMSO. A 3x, 10 point dilution of the compounds are carried out in DMSO. Then the compounds are diluted into assay buffer133x so that the DMSO concentration is 0.75%. • e. Activity measurement: The fluorescence signal change of the cells upon compound addition is monitored in FLIPRtetra. 25ul of compound is transferred into the cell plates (50ul of FLIPR dye; DMSO concentration: 0.25%). Signal is recorded for 90sec after compound addition. Then 50ul of 500nM SIP is added in the cell plate, and signal is recorded for 90 seconds upon addition. • 4. Data analysis • a. Peak value is calculated for each compound/S1P addition • b. The peak value of S1P at 200nM is used as high control (100%), and the peak value of buffer only is used as low control (0%). • c. Data is normalized against high and low controls using the following equation: POC_S = 100*(RAW-LO)/(HI-LO) [formula] • d. Peak value is plotted against the concentration of compound. • e. Curve is fitted using the 4 parameter fit: Y = (A+(B/(1+(((x/C))^(∧)D)))) [formula] where: Y is POC_S (or POC) • X is compound concentration • A is the minimum (EC50min or IC50min) • B is the maxmum (EC50max or IC50max) • C is the inflection point (EC50IP or IC50IP) • D is the hill slope (EC50 slope or IC50 slope).

T1 sequence (P21453 whole entry): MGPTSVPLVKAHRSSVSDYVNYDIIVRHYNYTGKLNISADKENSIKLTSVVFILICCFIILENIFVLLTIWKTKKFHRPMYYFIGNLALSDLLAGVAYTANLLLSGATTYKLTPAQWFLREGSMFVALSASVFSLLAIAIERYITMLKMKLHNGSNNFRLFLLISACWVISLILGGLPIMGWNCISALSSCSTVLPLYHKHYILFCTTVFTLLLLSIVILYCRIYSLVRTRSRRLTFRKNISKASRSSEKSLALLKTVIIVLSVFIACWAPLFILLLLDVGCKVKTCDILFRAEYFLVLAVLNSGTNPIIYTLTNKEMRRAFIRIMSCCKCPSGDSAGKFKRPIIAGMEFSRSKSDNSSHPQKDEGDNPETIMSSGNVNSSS

SMILES | EC50
O=C(O)C1CN(Cc2ccc(-c3cc4cc(Cc5ccccc5)ccc4o3)nc2)C1 [Reference Compound 32, 1-((6-(5-benzylbenzofuran-2-yl)pyridin-3-yl)methyl)azetidine-3-carboxylic acid] | 2600 nM and 516 nM
COc1cc(CN2CC(C(=O)O)C2)ccc1-c1cc2cc(Cc3ccccc3)ccc2o1 [Reference Compound 33, 1-((4-(5-benzylbenzofuran-2-yl)-3-methoxyphenyl)methyl)azetidine-3-carboxylic acid] | 1000 nM and 1900 nM and 196 nM
O=C(O)C1CN(Cc2ccc(-c3cc4cc(Cc5ccccc5)ccc4o3)c(Cl)c2)C1 [Reference Compound 36, 1-((4-(5-benzylbenzofuran-2-yl)-3-chlorophenyl)methyl)azetidine-3-carboxylic acid] | 199 nM
Cc1cc(CN2CC(C(=O)O)C2)ccc1-c1cc2cc(Cc3ccccc3)ccc2o1 [Reference Compound 43, 1-((4-(5-Benzylbenzofuran-2-yl)-3-methylphenyl)methyl)azetidine-3-carboxylic acid] | 241 nM
CCCCOc1ccc2oc(-c3ccc4c(c3)CCN(CCC(=O)O)C4)cc2c1 [Reference Compound 44, 3-(6-(5-butoxybenzofuran-2-yl)-3,4-dihydroisoquinolin-2(1H)-yl)propanoic acid] | 4440 nM
O=C(O)C1CN(Cc2cc(F)c(-c3cc4cc(Cc5ccccc5)ccc4o3)c(F)c2)C1 [Reference Compound 48, 1-((4-(5-Benzylbenzofuran-2-yl)-3,5-difluorophenyl)methyl)azetidine-3-carboxylic acid] | 89 nM
CCCCOc1ccc2oc(-c3ccc(CN4CC(C(=O)O)C4)cc3Cl)cc2c1 [Reference Compound 50, 1-((4-(5-Butoxybenzofuran-2-yl)-3-chlorophenyl)methyl)azetidine-3-carboxylic acid] | 266 nM
O=C(O)C1CN(Cc2ccc(-c3cc4cc(Cc5ccccc5)ccc4o3)c(F)c2)CCO1 (centres unmarked) [Reference Compound 54, 4-((4-(5-benzylbenzofuran-2-yl)-3-fluorophenyl)methyl)morpholine-2-carboxylic acid] | 1860 nM
O=C(O)C1CN(Cc2ccc(-c3cc4cc(C5CCOCC5)ccc4o3)c(F)c2)C1 [Reference Compound 61] | 207 nM
O=C(O)[C@@H]1CCCN(Cc2ccc(-c3cc4cc(Cc5ccccc5)ccc4o3)c(F)c2)C1 [Reference Compound 62, (3R)-1-((4-(5-Benzylbenzofuran-2-yl)-3-fluorophenyl)methyl)piperidine-3-carboxylic acid] | 5450 nM
O=C(O)C1CN(Cc2ccc(-c3cc4cc(Sc5ccccc5)ccc4o3)c(F)c2)C1 [Reference Compound 64] | 142 nM
O=C(O)C1CN(Cc2ccc(-c3cc4cc([S+]([O-])c5ccccc5)ccc4o3)c(F)c2)C1 (centres unmarked) [Reference Compound 65] | 67 nM
O=C(O)C1CN(Cc2ccc(-c3cc4cc(COC5CCC5)ccc4o3)c(F)c2)C1 [Reference Compound 67, 1-(4-(5-(Cyclobutoxymethyl)benzofuran-2-yl)-3-fluoro-benzyl)azetidine-3-carboxylic acid] | 25 nM

Second part, the compound after the results:

EC50 | SMILES
160 nM and 261 nM | O=C(O)CCN1CCc2cc(-c3cc4cc(Cc5ccccc5)ccc4o3)ccc2C1 [Reference Compound 29, 3-(6-(5-benzylbenzofuran-2-yl)-3,4-dihydroisoquinolin-2(1H)-yl)propanoic acid]
210 nM | O=C(O)C1CN(Cc2ccc(-c3cc4cc(C5CCCC5)ccc4o3)cc2)C1 [Reference Compound 30, 1-(4-(5-cyclopentylbenzofuran-2-yl)benzyl)azetidine-3-carboxylic acid]
860 nM and 307 nM | O=C(O)C1CN(Cc2ccc(-c3cc4cc(N5CCCCC5)ccc4o3)c(F)c2)C1 [Reference Compound 31, 1-(3-fluoro-4-(5-(piperidin-1-yl)benzofuran-2-yl)benzyl)azetidine-3-carboxylic acid]
1500 nM | O=C(O)C1CN(Cc2ccc(-c3cc4cc(N5CCCCC5)ccc4o3)cc2)C1 [Reference Compound 34, 1-(4-(5-(piperidin-1-yl)benzofuran-2-yl)benzyl)azetidine-3-carboxylic acid]
4170 nM | O=C(O)CCN1CCc2cc(-c3cc4cc(C5CCCC5)ccc4o3)ccc2C1 [Reference Compound 37, 3-(6-(5-cyclopentylbenzofuran-2-yl)-3,4-dihydroisoquinolin-2(1H)-yl)propanoic acid]
803 nM | O=C(O)C1CN(Cc2ccc(-c3cc4cc(OCC5CCCC5)ccc4o3)c(F)c2)C1 [Reference Compound 38, 1-(4-(5-(cyclopentylmethoxy)benzofuran-2-yl)-3-fluorobenzyl)azetidine-3-carboxylic acid]
807 nM | O=C(O)CCNC1Cc2ccc(-c3cc4cc(Cc5ccccc5)ccc4o3)cc2C1 (centres unmarked) [Reference Compound 45, 3-(5-(5-benzylbenzofuran-2-yl)-2,3-dihydro-1H-inden-2-ylamino)-propanoic acid]
1070 nM | COc1cc(CN2CC(C(=O)O)C2)ccc1-c1cc2cc(C3CCCC3)ccc2o1 [Reference Compound 47, 1-((4-(5-cyclopentylbenzofuran-2-yl)-3-methoxyphenyl)methyl)azetidine-3-carboxylic acid]
109 nM | O=C(O)C1CN(Cc2ccc(-c3cc4cc(OCC5CC5)ccc4o3)c(F)c2)C1 [Reference Compound 49]
558 nM | O=C(O)C1CN(Cc2ccc(-c3cc4cc(C5CCCC5)ccc4o3)c(Cl)c2)C1 [Reference Compound 51, 1-((3-chloro-4-(5-cyclopentylbenzofuran-2-yl)phenyl)methyl)azetidine-3-carboxylic acid]
2090 nM | O=C(O)C1CN(Cc2ccc(-c3cc4cc(N5CCOCC5)ccc4o3)c(F)c2)C1 [Reference Compound 53, 1-((3-fluoro-4-(5-morpholinobenzofuran-2-yl)phenyl)methyl)azetidine-3-carboxylic acid]
> 25000 nM | O=C(O)C1CN(Cc2ccc(-c3cc4cc(OCC5CCCC5)ccc4o3)c(F)c2)CCO1 (centres unmarked) [Reference Compound 55, 4-((4-(5-(cyclopentylmethoxy)benzofuran-2-yl)-3-fluorophenyl)methyl)morpholine-2-carboxylic acid]
877 nM | O=C(O)CCN1CCc2cc(-c3cc4cc(OCC5CCCC5)ccc4o3)ccc2C1 [Reference Compound 57, 3-(6-(5-(cyclopentylmethoxy)benzofuran-2-yl)-3,4-dihydroisoquinolin.2(1H)-yl)propanoic acid]
1070 nM | O=C(O)CCNCc1ccc(-c2cc3cc(C4CCCC4)ccc3o2)c(F)c1 [Reference Compound 58, 3-(4-(5-cyclopentylbenzofuran-2-yl)-3-fluorobenzylamino)propanoic acid]
3340 nM | O=C(O)[C@H]1CCCN(Cc2ccc(-c3cc4cc(Cc5ccccc5)ccc4o3)c(F)c2)C1 [Reference Compound 63, (3S)-1-((4-(5-Benzylbenzofuran-2-yl)-3-fluorophenyl)methyl)piperidine-3-carboxylic acid]
75 nM | O=C(O)C1CN(Cc2ccc(-c3cc4cc(COCC5CC5)ccc4o3)c(F)c2)C1 [Reference Compound 66]
